Data set [1] relates to mitochondrial membrane potential in CHO—K1 cells. In words: cells. The conditions noted are these: for EC50: Cricetulus griseus, read-out: EC50 (decrease of mitochondrial membrane potential). It counts as cell-based. As for the experimental part:
24 hours before assay, CHO—K1 cells were seeded in a 384 well plate at 75,000 cells per well in 50 μl growth medium (Iscove's Modified Dulbecco's Medium Invitrogen, 12440-046, 10% Fetal Bovine Serum (Invitrogen, 26140-095), 1× HT Supplement (Invitrogen, 11067-030) 1× Penicillin-Streptomycin solution (Hyclone, SV30010) 2 mM Glutamine (Hyclone, SH30034.01). Cells were then incubated overnight at 37° C., 5% carbon dioxide. When commencing the assay, 50 μl of assay buffer (50 mM Hepes, pH 7.4 150 mM KCL, 1600 mM NaCl, 25 mM D-(+)-glucose) was added to cells. […] 10 μl of 9 μM fluorescent dye TMRM (in 10% DMSO) was added and cells are incubated for 20 minutes at room temperature. 10 μl of 16 mM Brilliant Black BN prepared in D-PBS was added to yield a 1.6 mM final concentration of Brilliant Black BN. The fluorescence was immediately read on a Molecular Devices Analyst HT fluorescent plate reader, using an excitation wavelength of 530 nm and measuring the emission at 580 nm.
24 hours before assay, CHO—K1 cells were seeded in a 384 well plate at 75,000 cells per well in 50 μl growth medium (Iscove's Modified Dulbecco's Medium, lnvitrogen, 12440-046, 10% Fetal Bovine Serum (Invitrogen, 26140-095), 1× HT Supplement (Invitrogen, 11067-030) 1× Penicillin-Streptomycin solution (Hyclone, SV30010) 2 mM Glutamine (Hyclone, SH30034.01). Cells were then incubated overnight at 37° C., 5% carbon dioxide. When commencing the assay, 50 μl of assay buffer (50 mM Hepes, pH 7.4 150 mM KCL, 1600 mM NaCl, 25 mM D-(+)-glucose) was added to cells. 1 μl of the various amounts of the cation ionophore, H+—K+ antiporter, nigericin, was added and the cells are then incubated for 30 minutes at 37° C., 5% carbon dioxide. 10 μl of 9 μM fluorescent dye TMRM (in 10% DMSO) was added and cells are incubated for 20 minutes at room temperature. 10 μl of 16 mM Brilliant Black BN prepared in D-PBS was added yield a 1.6 mM final concentration of Brilliant Black BN. The fluorescence was immediately read on a Molecular Devices Analyst HT fluorescent plate reader, using an excitation wavelength of 530 nm and measuring the emission at 580 nm.

Data set [2] has the same test system. In words: Homogeneous TMRM/Brilliant Black BN mitochondrial membrane potential assay, 1536 well plate. The note with it: Cricetulus griseus, 0.5 h, 30 minutes incubation, TMRM fluorescence, read-out: EC50 (decrease of mitochondrial membrane potential). It counts as cell-based. The protocol:
24 hours before assay, CHO—K1 cells were seeded in a 1536 well plate at 10,000 cells per well in 4 μl growth medium (Iscove's Modified Dulbecco's Medium Invitrogen, 12440-046, 10% Fetal Bovine Serum (Invitrogen, 26140-095), 1×HT Supplement (Invitrogen, 11067-030) 1× Penicillin-Streptomycin solution (Hyclone, SV30010) 2 mM Glutamine (Hyclone, SH30034.01). Cells were then incubated overnight at 37° C., 5% carbon dioxide. When commencing the assay, 4 μl of assay buffer (50 mM Hepes, pH 7.4 150 mM KCL, 1600 mM NaCl, 25 mM D-(+)-glucose) was added to cells. 80 nl of various amounts of the mitochondrial uncoupling compound, CCCP, was added and the cells were then incubated for 30 minutes at 37° C., 5% carbon dioxide. 0.8 μl of 6 μM fluorescent dye TMRM (in 20% DMSO) was added and cells were incubated for 20 minutes at room temperature. 0.8 μl of 16 mM Brilliant Black BN prepared in D-PBS was added yield a 1.6 mM final concentration of Brilliant Black BN. The fluorescence was immediately read on a Molecular Devices Tetra fluorescent plate reader, using an excitation wavelength of 530 nm and measuring the emission at 580 nm while employing a custom filter (Omega Optical) whose transmission wavelength was 580 nm±10 nm.

This note sets out measurements from patent US20100209960A1, “METHOD FOR MEASURING MITOCHONDRIAL MEMBRANE POTENTIAL IN VERTEBRATE CELLS” (MERCK SHARP & DOHME CORP., priority 2007, published 2010).

With `O=[N+]([O-])c1ccc(O)c([N+](=O)[O-])c1` [2,4-DNP, 2,4-dinitrophenol], in data set [1] (CHO-K1, 0.5 h), the EC50 was 5000 nM.
Consider `N#CC(C#N)=NNc1cccc(Cl)c1` [CCCP, carbonylcyanide m-chlorophenylhydrazone], for which the EC50 was 250 nM in data set [1] (0.5 h, adherent CHO—K1 cells, 384 well plate, 30 minutes incubation, TMRM fluorescence) and 180 nM in data set [2].
Turning to `CO[C@@H]1C[C@@H](C[C@H]2CC[C@H](C)[C@H]([C@@H](C)C(=O)O)O2)O[C@]2(O[C@](C)([C@H]3CC[C@@](C)([C@@H]4O[C@@H]([C@H]5O[C@@](O)(CO)[C@H](C)C[C@@H]5C)C[C@@H]4C)O3)C[C@H]2C)[C@@H]1C` [Nigericin, nigericin], the “Effect at greater levels of nigericin” value in data set [1] was “toxicity and membrane depolarization”. Also, the “Effect on mitochondrial membrane potential” value in data set [1] (adherent CHO—K1 cells, 384 well plate, increasing amounts of nigericin) is given as “caused hyperpolarization of the mitochondrial membrane”.

In general, EC50 refers to the concentration needed to bring the measured effect to its halfway point.
